Source: patent publication US11484608B2, “Non-invasive assessment of hepatic mitochondrial metabolism by positional isotopomer NMR tracer analysis (PINTA)” (YALE UNIVERSITY, priority 2017, dated 2022)
Each block holds one molecule with its values, some of them ahead of it.

Assays:
[1] = test system: primary mouse hepatocytes; test: In vitro glucose production, VPC and lipolysis in isolated hepatocytes; assay type: cell-based; conditions: for glucagon-stimulated VPC flux / glucagon-stimulated glucose production: WT hepatocytes, 100 nM glucagon, 8 hr; for effect of glucagon to stimulate intrahepatic lipolysis: isolated hepatocytes
Method: For in vitro glucose production and lipolysis studies, primary mouse hepatocytes were isolated by the Yale Liver Center. Following removal of cell debris by Percoll density gradient centrifugation, cells were plated on 6-well collagen-I coated dishes (4.0×10^5 cells/well) in 2 ml recovery media (DMEM High Glucose containing 10% FBS, 2% penicillin-streptomycin, 100 nM dexamethasone, 1 nM insulin, and 10 mM HEPES). After incubation for 6 hr at 37° C. and 5% CO2, the attached cells were washed once in 1×PBS and then incubated overnight in 2 ml Low Glucose Culture Media (DMEM Low Glucose supplemented with 10% FBS, 2% penicillin-streptomycin and 10 mM HEPES for glucose production studies) or Serum Free Low Glucose Culture Media (DMEM Low Glucose supplemented with 0.5% fatty acid free BSA, 2% penicillin-streptomycin and 10 mM HEPES for lipolysis assays). […] After incubation for 8 hr at 37° C. and 5% CO2, cell culture media was collected for analysis of glucose, NEFA, and glycerol concentrations as described above. VPC was determined by measuring VPC/VEGP by PINTA as described above using 300 μL of the collected media, and multiplying this ratio by the measured glucose production rate. In a subset of studies, cells were incubated for 8 hr during the glucose production assay in media containing one of the following agents (all dissolved in 0.5% DMSO), or 0.5% DMSO vehicle: 20 μM ET-18-OCH3 (Santa Cruz), 100 μM U-73122 (Sigma), 30 nM thapsigargin (Sigma), 100 nM vasopressin (Sigma) 50 μM 2-APB (R&D Systems), 70 μM caffeine (Sigma), 1 mM malic enzyme inhibitor hydroxymalonate (Sigma). To inhibit PKA, hepatocytes were incubated in H-89 […] hydrate (Sigma, 25 μM) dissolved in media, or media lacking H-89 as a control. In the insulin treatment studies, hepatocytes were incubated in 1 nM insulin with 5% BSA and glucose production media for the duration of the glucose production assay. In the in vitro atglistatin study, hepatocytes were incubated in 10 μM atglistatin in 0.1% EtOH, or 0.1% EtOH vehicle. All values were normalized to total protein content determined from whole-cell lysates by a BCA protein assay (Thermo Fisher Scientific) according to the manufacturer's instructions and expressed as fold change verses vehicle-treated cells.

CPT-1 = molecular target: T1, CPT-1 (Rattus norvegicus, UniProt P32198); test: CPT-1 inhibitor etomoxir in 0, 6, 16 and 48 hr fasted rats; assay type: in vivo
T1 construct: from tissue; host or cells: live rat, in vivo (intraperitoneal dosing); liver is the tissue discussed
T1 sequence (P32198 1-773): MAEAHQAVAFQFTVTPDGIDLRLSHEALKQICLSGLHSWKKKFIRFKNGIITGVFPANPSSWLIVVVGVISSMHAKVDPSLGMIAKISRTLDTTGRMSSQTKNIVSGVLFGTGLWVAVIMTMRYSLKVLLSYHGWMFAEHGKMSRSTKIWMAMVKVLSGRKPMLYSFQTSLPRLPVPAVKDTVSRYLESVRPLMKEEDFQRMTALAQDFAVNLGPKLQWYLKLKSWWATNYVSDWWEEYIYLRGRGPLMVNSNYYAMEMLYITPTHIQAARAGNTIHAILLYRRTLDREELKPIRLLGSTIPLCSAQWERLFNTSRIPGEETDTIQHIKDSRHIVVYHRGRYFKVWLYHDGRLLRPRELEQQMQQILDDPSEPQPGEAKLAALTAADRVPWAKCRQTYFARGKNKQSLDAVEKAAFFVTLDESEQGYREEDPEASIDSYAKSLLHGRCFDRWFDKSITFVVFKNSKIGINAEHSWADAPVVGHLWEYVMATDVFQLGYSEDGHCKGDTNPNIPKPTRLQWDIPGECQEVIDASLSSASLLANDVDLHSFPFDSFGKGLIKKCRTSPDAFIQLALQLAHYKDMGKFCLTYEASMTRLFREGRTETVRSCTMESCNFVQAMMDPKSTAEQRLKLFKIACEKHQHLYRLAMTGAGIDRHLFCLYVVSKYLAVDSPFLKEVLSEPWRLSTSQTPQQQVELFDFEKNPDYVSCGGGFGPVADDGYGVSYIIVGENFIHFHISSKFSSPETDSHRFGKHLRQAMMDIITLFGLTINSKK
Method: (§1) 8, 16, and 48 hr fasted rats were injected with a small molecule inhibitor of glycogen phosphorylase, 1-(3-(3-(2-Chloro-4,5-difluorobenzoyl) ureido)-4-methoxyphenyl)-3-methylurea (Sigma #361515; 5 mg/kg IV) and a tracer infusion of [2,3,3,3-^2H4]alanine ([…]prime for 5 min and […] continuous) and [3-^3H]glucose (0.3 μCi/min prime for 5 min and 0.3 μCi/min continuous) as well as [^13C4] β-hydroxybutyrate, [1,1,2,3,3-^2H5]glycerol, and [^13C16]palmitate at the rates listed in Table 9, for 120 min. Blood samples were obtained before (time zero) and 120 min after treatment with the glycogen phosphorylase inhibitor for measurement of turnover rates and plasma hormone/substrate concentrations. Hepatic acetyl-CoA content was altered by treatment with a CPT-1 inhibitor (etomoxir, 8 mg/kg) or an ATGL inhibitor (atglistatin, […]) in 0, 6, 16, and 48 hr fasted rats. Both agents were solubilized by suspending the drug in 4% ethanol/96% normal saline, heating to 60° C., and sonicating, and were cooled to room temperature before they were injected intraperitoneally. […] In these animals plasma glucose concentrations were measured every 15 minutes and a variable infusion of 20% glucose (Pfizer Hospira, Lake Forest, Ill.) was used to maintain plasma glucose concentrations ˜3.6-3.7 mM. The physiologic role of glucocorticoids was assessed in 6 and 48 hr fasted rats by treatment with a glucocorticoid receptor antagonist, mifepristone. Following a 2 hr tracer infusion at the rates described above to assess fatty acid, glycerol, glucose, and β-hydroxybutyrate turnover, rats were injected with mifepristone (40 mg/kg) IV. The tracer infusion was continued and the tracer of each of the above substrates was again measured 2 hr after treatment with mifepristone.
(§2) All whole-body substrate turnover rates were calculated using the equation Turnover=([Tracer APE/Plasma APE]−1)*Infusion rate, where APE designates the atom percent enrichment measured by mass spectrometry as described below (Biochemical Analysis). All chemicals used for flux analysis were obtained from SIGMA. Turnover of glucose, glycerol, and β-hydroxybutyrate were determined by gas chromatography-mass spectrometry (GC-MS). Briefly, both glucose and glycerol were deprotonized with 5 volumes of methanol, derivitized with 3 volumes of 1:1 acetic anhydride:pyridine, heated to 65° C. for 20 min, and 1 volume of methanol was added, then GC-MS was used in CI mode to measure glucose enrichment and EI mode to measure glycerol enrichment, with turnover calculated using the equation above. β-Hydroxybutyrate was deprotonized with 5 volumes of methanol and derivitized with 3 volumes of n-butanol 4N HCl, after which the samples were heated to 65° C. for 60 min, evaporated under N2 gas, and re-suspended in […] of trifluoroacetic acid:methylene chloride (1:7). Fatty acid turnover was measured by determining the plasma palmitate enrichment by GC-MS. Samples were prepared for measurements of palmitate enrichment by evaporating […] plasma, dissolving in […] 1:1 chloroform:methanol and derivitizing with […] boron trifluoride/methanol, then heating to 100° C. for 5 min, adding 2 mL pentane and 1 mL water, and centrifuging at low speed for 5 min. […] Alanine turnover was determined in rats infused with [2,3,3,3-^2H4]alanine by preparing samples to measure alanine enrichment by GC/MS (CI mode) using the same protocol as was employed to measure β-hydroxybutyrate enrichment.

glycogen phosphorylase = molecular target: T2, glycogen phosphorylase (Rattus norvegicus, UniProt P09811); test: Glycogen phosphorylase inhibitor in 8, 16 and 48 hr fasted rats; assay type: in vivo; conditions: for reduction in rates of endogenous glucose production: 5 mg/kg IV, 2 hr
T2 construct: from tissue; host or cells: live rat, in vivo (IV dosing); liver is the tissue discussed
T2 sequence (P09811 1-850): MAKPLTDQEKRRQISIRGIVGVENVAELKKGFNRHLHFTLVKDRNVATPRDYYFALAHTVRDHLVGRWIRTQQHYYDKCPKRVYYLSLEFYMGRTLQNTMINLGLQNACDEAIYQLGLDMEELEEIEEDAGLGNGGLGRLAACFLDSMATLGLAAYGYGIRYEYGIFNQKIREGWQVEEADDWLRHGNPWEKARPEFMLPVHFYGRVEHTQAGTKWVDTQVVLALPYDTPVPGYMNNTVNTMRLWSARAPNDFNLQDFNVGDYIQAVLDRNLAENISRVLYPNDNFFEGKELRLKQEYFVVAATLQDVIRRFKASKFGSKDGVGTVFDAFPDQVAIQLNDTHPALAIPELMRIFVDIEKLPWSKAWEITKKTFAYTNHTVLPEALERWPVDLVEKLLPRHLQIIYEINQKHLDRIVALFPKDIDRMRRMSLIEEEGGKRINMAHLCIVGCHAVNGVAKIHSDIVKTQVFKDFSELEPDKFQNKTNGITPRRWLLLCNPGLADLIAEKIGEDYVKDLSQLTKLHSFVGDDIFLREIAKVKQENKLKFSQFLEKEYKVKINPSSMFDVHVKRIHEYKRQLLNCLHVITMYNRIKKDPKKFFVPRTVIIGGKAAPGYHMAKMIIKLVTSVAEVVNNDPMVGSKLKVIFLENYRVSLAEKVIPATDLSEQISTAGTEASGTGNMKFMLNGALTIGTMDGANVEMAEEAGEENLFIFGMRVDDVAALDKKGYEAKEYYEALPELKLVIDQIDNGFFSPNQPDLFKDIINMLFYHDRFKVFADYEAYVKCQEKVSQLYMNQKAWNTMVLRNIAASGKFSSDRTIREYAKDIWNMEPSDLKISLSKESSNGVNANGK
Method: as §1, §2

[2] = short-term fasted rats (8 and 16 hr)

Molecule: NCCOB(c1ccccc1)c1ccccc1 [2-APB, 2-aminoethoxydiphenyl borate]
glucagon-stimulated VPC flux [1]: inhibited
glucagon-stimulated glucose production [1]: inhibited
effect of glucagon to stimulate intrahepatic lipolysis [1]: abrogated

Molecule: CCCCCCCCCCCCCCCCCCOCC(COP(=O)([O-])OCC[N+](C)(C)C)OC (centres unmarked) [ET-18-OCH3]
glucagon-stimulated VPC flux [1]: inhibited
glucagon-stimulated glucose production [1]: inhibited
effect of glucagon to stimulate intrahepatic lipolysis [1]: abrogated

Molecule: COc1ccc(S(=O)(=O)N(CCO)c2ccccc2CN(C)C/C=C/c2ccc(Cl)cc2)cc1 [KN-93]
glucagon-stimulated glucose production [1]: abrogated
effect of glucagon to stimulate intrahepatic lipolysis [1]: abrogated

Molecule: COc1ccc2c(c1)CC[C@@H]1[C@@H]2CC[C@]2(C)[C@@H](NCCCCCCN3C(=O)C=CC3=O)CC[C@@H]12 [U-73122]
glucagon-stimulated VPC flux [1]: inhibited
glucagon-stimulated glucose production [1]: inhibited
effect of glucagon to stimulate intrahepatic lipolysis [1]: abrogated

Molecule: Cn1c(=O)c2c(ncn2C)n(C)c1=O [caffeine]
glucagon-stimulated VPC flux [1]: inhibited
glucagon-stimulated glucose production [1]: inhibited
effect of glucagon to stimulate intrahepatic lipolysis [1]: abrogated

plasma corticosterone concentrations (CPT-1; 16- and 48-hr fasted rats): increases
reductions in plasma leptin concentrations (CPT-1; 16- and 48-hr fasted rats): 50%
hepatic acetyl-CoA content, hepatic gluconeogenesis, and plasma glucose and insulin concentrations (CPT-1; 16- to 48-hr fasted rats): suppressed
WAT lipolysis (CPT-1; fasted rats): increased
hepatic acetyl-CoA content (CPT-1; fasted rats): suppression
plasma epinephrine or norepinephrine concentrations (CPT-1; fasted rats): no differences
plasma lactate and hepatic malonyl-CoA concentrations (CPT-1; fasted rats): unchanged
β-hydroxybutyrate turnover (CPT-1; fasted rats): suppression
plasma glucose concentrations (CPT-1; fasted rats, 8 mg/kg IP, 2 hr): lowered
plasma insulin concentrations (CPT-1; fasted rats, 8 mg/kg IP, 2 hr): lowered
whole body glucose turnover (CPT-1; fasted rats, 8 mg/kg IP, 2 hr): lowered
Molecule: CCOC(=O)[C@@]1(CCCCCCOc2ccc(Cl)cc2)CO1 [etomoxir]

plasma ACTH concentrations (glycogen phosphorylase; 8- and 16-hr fasted rats): increases
plasma corticosterone concentrations (glycogen phosphorylase; 8- and 16-hr fasted rats): increases
plasma leptin concentrations (glycogen phosphorylase; 8- and 16-hr fasted rats): reductions
reduction in rates of endogenous glucose production (glycogen phosphorylase; 8-hr fasted rats): 60%
plasma FGF-21 concentrations (glycogen phosphorylase; 8 and 16-hr fasted rats): increased
plasma glucose concentrations (glycogen phosphorylase; 8 and 16 hr fasted rats): lowered
plasma insulin concentrations (glycogen phosphorylase; 8 and 16 hr fasted rats): lowered
plasma lactate concentrations (glycogen phosphorylase; 8 and 16 hr fasted rats): lowered
whole-body glucose turnover (glycogen phosphorylase; 8 and 16 hr fasted rats): lowered
reduction in rates of endogenous glucose production (glycogen phosphorylase; 16-hr fasted rats): 30%
plasma glucose, lactate, and insulin concentrations and whole-body glucose turnover (glycogen phosphorylase; 48-hr fasted rats): not in the 48-hr fasted rats
rates of endogenous glucose production (glycogen phosphorylase; 48-hr fasted rats): no difference
plasma glucagon and catecholamine concentrations (glycogen phosphorylase; fasted rats): not altered
rates of WAT lipolysis (glycogen phosphorylase; [2]): increased
rates of alanine turnover (glycogen phosphorylase; [2]): decreased
Molecule: CNC(=O)Nc1ccc(OC)c(NC(=O)NC(=O)c2cc(F)c(F)cc2Cl)c1 [glycogen phosphorylase inhibitor, 1-(3-(3-(2-Chloro-4,5-difluorobenzoyl)ureido)-4-methoxyphenyl)-3-methylurea]

Molecule: C/C=C(/C)C(=O)O[C@H]1C(C)=C2[C@H]([C@@H]1OC(=O)CCCCCCC)[C@@](C)(OC(C)=O)C[C@H](OC(=O)CCC)[C@@]1(O)[C@H]2OC(=O)[C@@]1(C)O [thapsigargin]
glucagon-stimulated VPC flux [1]: inhibited
glucagon-stimulated glucose production [1]: inhibited
effect of glucagon to stimulate intrahepatic lipolysis [1]: abrogated

Molecule: insulin
glucose production and VPC flux ([1]; isolated hepatocytes with insulin, unaltered in InsP3R-I KO): suppress
